{
  "source": "paper PMC11149917",
  "about": "“Translational and Therapeutic Evaluation of RAS-GTP Inhibition by RMC-6236 in RAS-Driven Cancers” (Cancer Discovery, 2024)",
  "test": "Mouse blood and tissue PK (LC/MS-MS)",
  "format": "in vivo",
  "details": "mouse, tumor, oral",
  "experimental": "For single-dose PKPD study, mice were randomized and assigned into groups (n = 3/dose/time point). […] Blood and tissues, including the tumor, brain, colon, ear skin, and muscle, were harvested at indicated time points. […] The whole blood, tumor, brain, colon, and ear skin concentrations of RMC-6236 were determined using liquid chromatography–tandem mass spectrometry (LC/MS-MS) methods. […] After thorough mixing and centrifugation, the supernatant was diluted with water or directly analyzed on a Sciex 5500 or Sciex 6500+ triple quadrupole mass spectrometer equipped with an ACQUITY or Shimadzu UPLC system. […] Bioanalysis on blood and tissue samples from xenograft models was run at Pharmaron and Wuxi AppTec. Concentrations reported as below the quantification limit were treated as zero for PK analysis. PK parameters were calculated by noncompartmental analysis of the concentration–time profiles using Phoenix WinNonLin (version 8.3 Certara). Apparent terminal elimination half-life (t1/2) values were calculated as ln(2)/k, where k represents the terminal elimination rate constant. Area under the concentration–time curve (AUC) values were estimated using a linear trapezoidal method. AUClast values were calculated from the dosing time to the last quantifiable concentration. Maximum concentration (Cmax) was recorded as observed.",
  "note": "Like-named read-outs stand apart in the source and are kept apart here.",
  "data": [
    {"smiles": "CCn1c(-c2cc(N3CCN(C)CC3)cnc2[C@H](C)OC)c2c3cc(ccc31)-c1csc(n1)C[C@H](NC(=O)[C@H]1C[C@@H]1C)C(=O)N1CCC[C@H](N1)C(=O)OCC(C)(C)C2", "note": "[RMC-6236]", "values": [
      {"measurement": "concentration at 4 h", "setting": "25 mg/kg, HPAC #4, 25 mg/kg, individual animals, read-out: RMC-6236 (nM) Tumor", "result": 4090, "unit": "nM"},
      {"measurement": "concentration at 8 h", "setting": "25 mg/kg, HPAC #4, 25 mg/kg, 8h, individual animals, read-out: RMC-6236 (nM) Tumor", "result": 4080, "unit": "nM"},
      {"measurement": "concentration at 24 h", "setting": "25 mg/kg, HPAC #4, 25 mg/kg, 24h, individual animals, read-out: RMC-6236 (nM) Tumor", "result": 1260, "unit": "nM"},
      {"measurement": "concentration at 8 h", "setting": "25 mg/kg, KP-4, study KP-4 #3, 25 mg/kg, 8h, read-out: RMC-6236 (nM) Tumor", "result": 3260, "unit": "nM"},
      {"measurement": "concentration at 24 h", "setting": "25 mg/kg, KP-4, study KP-4 #3, 25 mg/kg, 24h, read-out: RMC-6236 (nM) Tumor", "result": 758, "unit": "nM"},
      {"measurement": "concentration at 8 h", "setting": "25 mg/kg, KP-4, study KP-4 #4, 25 mg/kg, 8h, read-out: RMC-6236 (nM) Tumor", "result": 3030, "unit": "nM"},
      {"measurement": "concentration at 24 h", "setting": "25 mg/kg, KP-4, study KP-4 #4, 25 mg/kg, 24h, read-out: RMC-6236 (nM) Tumor", "result": 840, "unit": "nM"},
      {"measurement": "concentration at 48 h", "setting": "25 mg/kg, KP-4, study KP-4 #4, 25 mg/kg, 48h, read-out: RMC-6236 (nM) Tumor", "result": 312, "unit": "nM"},
      {"measurement": "concentration at 4 h", "setting": "25 mg/kg, KP-4, study KP-4 #5, 25 mg/kg, read-out: RMC-6236 (nM) Tumor", "result": 2460, "unit": "nM"},
      {"measurement": "concentration at 24 h", "setting": "25 mg/kg, KP-4, study KP-4 #5, 25 mg/kg, 24h, read-out: RMC-6236 (nM) Tumor", "result": 859, "unit": "nM"},
      {"measurement": "concentration at 48 h", "setting": "25 mg/kg, KP-4, study KP-4 #5, 25 mg/kg, 48h, read-out: RMC-6236 (nM) Tumor", "result": 281, "unit": "nM"},
      {"measurement": "concentration at 8 h", "setting": "25 mg/kg, KP-4, study KP-4 #6, 25 mg/kg, 8h, read-out: RMC-6236 (nM) Tumor", "result": 4160, "unit": "nM"},
      {"measurement": "concentration at 24 h", "setting": "25 mg/kg, KP-4, study KP-4 #6, 25 mg/kg, 24h, read-out: RMC-6236 (nM) Tumor", "result": 1500, "unit": "nM"},
      {"measurement": "concentration at 48 h", "setting": "25 mg/kg, KP-4, study KP-4 #6, 25 mg/kg, 48h, read-out: RMC-6236 (nM) Tumor", "result": 739, "unit": "nM"},
      {"measurement": "concentration at 1 h", "setting": "25 mg/kg, Model Development Dataset, 25mg/kg_study8, read-out: Tumor Concentration", "result": 457, "unit": "nM"},
      {"measurement": "concentration at 2 h", "setting": "25 mg/kg, Model Development Dataset, 25mg/kg_study8, 2 h, read-out: Tumor Concentration", "result": 1530, "unit": "nM"},
      {"measurement": "concentration at 8 h", "setting": "25 mg/kg, Model Development Dataset, 25mg/kg_study8, 8 h, read-out: Tumor Concentration", "result": 2320, "unit": "nM"},
      {"measurement": "concentration at 24 h", "setting": "25 mg/kg, Model Development Dataset, 25mg/kg_study8, 24 h, read-out: Tumor Concentration", "result": 995, "unit": "nM"},
      {"measurement": "concentration at 240 h", "setting": "25 mg/kg, Model Development Dataset, 25mg/kg_study8r (doses every 24 h, 0-[…]), read-out: Tumor Concentration", "result": 410, "unit": "nM"},
      {"measurement": "concentration at 1 h", "setting": "25 mg/kg, Model Validation Dataset, 25mg/kg_study6, read-out: Tumor Concentration", "result": 358, "unit": "nM"},
      {"measurement": "concentration at 8 h", "setting": "25 mg/kg, Model Validation Dataset, 25mg/kg_study6, 8 h, read-out: Tumor Concentration", "result": 2570, "unit": "nM"},
      {"measurement": "concentration at 24 h", "setting": "25 mg/kg, Model Validation Dataset, 25mg/kg_study6, 24 h, read-out: Tumor Concentration", "result": 890, "unit": "nM"},
      {"measurement": "concentration at 48 h", "setting": "25 mg/kg, Model Validation Dataset, 25mg/kg_study6, 48 h, read-out: Tumor Concentration", "result": 690, "unit": "nM"},
      {"measurement": "concentration at 72 h", "setting": "25 mg/kg, Model Validation Dataset, 25mg/kg_study6, 72 h", "result": 433, "unit": "nM"},
      {"measurement": "concentration at 8 h", "setting": "25 mg/kg, NCI-H441 xenograft tumor, study NCI-H441#6, 25 mg/kg, 8h, read-out: RMC-6236 (nM) Tumor", "result": 2380, "unit": "nM"},
      {"measurement": "concentration at 24 h", "setting": "25 mg/kg, NCI-H441 xenograft tumor, study NCI-H441#6, 25 mg/kg, 24h, read-out: RMC-6236 (nM) Tumor", "result": 989, "unit": "nM"},
      {"measurement": "concentration at 48 h", "setting": "25 mg/kg, NCI-H441 xenograft tumor, study NCI-H441#6, 25 mg/kg, 48h, read-out: RMC-6236 (nM) Tumor", "result": 641, "unit": "nM"},
      {"measurement": "concentration at 8 h", "setting": "25 mg/kg, NCI-H441 xenograft tumor, study NCI-H441#8, 25 mg/kg, 8h, read-out: RMC-6236 (nM) Tumor", "result": 2740, "unit": "nM"},
      {"measurement": "concentration at 24 h", "setting": "25 mg/kg, NCI-H441 xenograft tumor, study NCI-H441#8, 25 mg/kg, 24h, read-out: RMC-6236 (nM) Tumor", "result": 1080, "unit": "nM"},
      {"measurement": "concentration at 4 h", "setting": "25 mg/kg, sheet colon, KP-4, KP-4 #5, 25 mg/kg, read-out: RMC-6236 (nM) Tumor", "result": 5860, "unit": "nM"},
      {"measurement": "concentration at 24 h", "setting": "40 mg/kg, KP-4, study KP-4 #4, 40 mg/kg, 24h, read-out: RMC-6236 (nM) Tumor", "result": 1620, "unit": "nM"},
      {"measurement": "concentration at 48 h", "setting": "40 mg/kg, KP-4, study KP-4 #4, 40 mg/kg, 48h, read-out: RMC-6236 (nM) Tumor", "result": 661, "unit": "nM"},
      {"measurement": "concentration at 1 h", "setting": "40 mg/kg, Model Development Dataset, 40mg/kg_study8, read-out: Tumor Concentration", "result": 947, "unit": "nM"},
      {"measurement": "concentration at 2 h", "setting": "40 mg/kg, Model Development Dataset, 40mg/kg_study8, 2 h, read-out: Tumor Concentration", "result": 3090, "unit": "nM"},
      {"measurement": "concentration at 8 h", "setting": "40 mg/kg, Model Development Dataset, 40mg/kg_study8, 8 h, read-out: Tumor Concentration", "result": 3380, "unit": "nM"},
      {"measurement": "concentration at 24 h", "setting": "40 mg/kg, Model Development Dataset, 40mg/kg_study8, 24 h, read-out: Tumor Concentration", "result": 1810, "unit": "nM"},
      {"measurement": "concentration at 240 h", "setting": "40 mg/kg, Model Development Dataset, 40mg/kg_study8r (doses every 24 h, 0-[…]), read-out: Tumor Concentration", "result": 876, "unit": "nM"},
      {"measurement": "concentration at 2 h", "setting": "40 mg/kg, NCI-H441 xenograft tumor, study NCI-H441#8, 40 mg/kg, 2h, read-out: RMC-6236 (nM) Tumor", "result": 3260, "unit": "nM"},
      {"measurement": "concentration at 8 h", "setting": "40 mg/kg, NCI-H441 xenograft tumor, study NCI-H441#8, 40 mg/kg, 8h, read-out: RMC-6236 (nM) Tumor", "result": 2820, "unit": "nM"},
      {"measurement": "concentration at 4 h", "setting": "50 mg/kg, HPAC #3, 50 mg/kg, individual animals, read-out: RMC-6236 (nM) Tumor", "result": 4620, "unit": "nM"},
      {"measurement": "concentration at 8 h", "setting": "50 mg/kg, HPAC #3, 50 mg/kg, 8h, individual animals, read-out: RMC-6236 (nM) Tumor", "result": 6090, "unit": "nM"},
      {"measurement": "concentration at 24 h", "setting": "50 mg/kg, HPAC #3, 50 mg/kg, 24h, individual animals, read-out: RMC-6236 (nM) Tumor", "result": 3810, "unit": "nM"},
      {"measurement": "concentration at 48 h", "setting": "50 mg/kg, HPAC #3, 50 mg/kg, 48h, individual animals, read-out: RMC-6236 (nM) Tumor", "result": 1440, "unit": "nM"},
      {"measurement": "concentration at 8 h", "setting": "50 mg/kg, KP-4, study KP-4 #3, 50 mg/kg, 8h, read-out: RMC-6236 (nM) Tumor", "result": 5580, "unit": "nM"},
      {"measurement": "concentration at 24 h", "setting": "50 mg/kg, KP-4, study KP-4 #3, 50 mg/kg, 24h, read-out: RMC-6236 (nM) Tumor", "result": 2070, "unit": "nM"},
      {"measurement": "concentration at 48 h", "setting": "50 mg/kg, KP-4, study KP-4 #3, 50 mg/kg, 48h, read-out: RMC-6236 (nM) Tumor", "result": 489, "unit": "nM"},
      {"measurement": "concentration at 1 h", "setting": "50 mg/kg, Model Validation Dataset, 50mg/kg_study6, read-out: Tumor Concentration", "result": 1310, "unit": "nM"},
      {"measurement": "concentration at 8 h", "setting": "50 mg/kg, Model Validation Dataset, 50mg/kg_study6, 8 h, read-out: Tumor Concentration", "result": 4800, "unit": "nM"}
    ]}
  ]
}
